Measurements from US20230129485A1, “SYSTEM AND METHOD FOR DETERMINING MATERIAL PROPERTIES OF MOLECULAR SYSTEMS FROM AN AB-INITIO PARAMETERIZED FORCE-FIELD” (InterX, Inc., priority 2021, published 2023).
Read-outs that look alike come from different tables or passages of the source.

What was measured:
[1] = Free energy of hydration predicted with the QM-parameterized force field model (ARROW FF), classical MD and PIMD simulation in a water box; details: for Arrow error: Table 5, error of Arrow PIMD8 hydration free energy vs experiment; for Arrow PIMD8 Error: absolute error vs Exp (hydration)
In short: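 Classical and PIMD runs (MTS integrator, MTTK barostat at 1 atm) followed minimization and 50 ps equilibration, with 1 ns NPT production per window. Fifteen unequally spaced lambda windows removed all solute-solvent interactions simultaneously in a 32 Å water box. Hydration free energy computed by Bennett acceptance ratio and thermodynamic integration.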

[2] = Free energy of hydration predicted by General Amber Force Field (GAFF), from literature; details: Table 5; error of GAFF hydration free energy vs experiment
[3] = Free energy of hydration predicted by polarizable AMOEBA force field, from literature; details: Table 5; error of AMOEBA hydration free energy vs experiment
[4] = Free energy of hydration by Solvation Model Dielectric (SMD) implicit solvent model; details: absolute error vs Exp (hydration)
In short: (§1)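 The set is limited to molecules shared with the QM-parameterized force field calculations for the SMD, PCM and COSMO-RS models. SMD and PCM predictions came from an outside source, while COSMO solvation free energies were generated in-house with MolPro.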

[5] = Free energy of hydration by Polarizable Continuum Model (PCM); details: absolute error vs Exp (hydration)
In short: as §1

[6] = Free energy of hydration by COSMO-RS
In short: as §1

[7] = Free energy of hydration by Free Energy Machine Learning Model (FML); details: absolute error vs Exp (hydration)
Excerpt: Machine learning models can be used for free energy determination.

[8] = experimental, cited from earlier work; for Exp (hydration): Table 5
[9] = experimental, cited from earlier work
[10] = Table 5; free energy of hydration, GAFF prediction taken from literature; cited from earlier work
[11] = Table 5; free energy of hydration, AMOEBA prediction taken from literature; cited from earlier work
[12] = implicit solvent model, values received; cited from earlier work
[13] = implicit solvent model, values received; cited from earlier work; remark: listed apart in the source
[14] = Free energy of hydration by COSMO implicit solvent model (MolPro ver. 2012); details: absolute error vs Exp (hydration)
In short: as §1

[15] = Free energy of solvation in cyclohexane predicted with the QM-parameterized force field model (ARROW FF), MD and PIMD; details: Table 4; for CHEX Arrow MD Error: error of MD cyclohexane solvation free energy vs experiment; for CHEX Arrow PIMD4 Error: error of PIMD4 cyclohexane solvation free energy vs experiment
In short: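 Solute–cyclohexane interactions decoupled over 15 λ points with soft-core scaling, in MD and path-integral simulations under NPT at 1 atm using PME electrostatics and 9 Å cutoffs. Each window had 50 ps equilibration and 1 ns production; free energies from BAR and TI.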

[16] = CHEX/H2O partition coefficient (log D) predicted with the QM-parameterized force field model (ARROW FF)
In short: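 Cyclohexane/water partition coefficients were predicted by molecular simulation with a QM-parameterized force field, with bonded force constants and equilibrium values fitted to MP2/aug-cc-pVTZ energies. Solutes carried neutral functional groups, and results from four independent groups were averaged.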

[17] = CHEX/H2O partition coefficient, experimental, cited from earlier work; for logD Exp (logD): Table 4
[18] = Table 3, absolute error of MD hydration free energy vs experiment
[19] = Table 3, absolute error of PIMD8 hydration free energy vs experiment
[20] = Table 3, free energy of hydration
[21] = Table 3, free energy of solvation in cyclohexane
[22] = Table 4, error of MD hydration free energy vs experiment
[23] = Table 4, error of PIMD8 hydration free energy vs experiment
[24] = Table 4, neutral amino-acid analogues
[25] = Table 4, solvation free energy in cyclohexane

Compound | water Arrow MD Error [1, 18] | water Arrow PIMD8 Error [1, 19] | Arrow error [1] | Arrow PIMD8 Error [1] | GAFF error [2] | AMOEBA error [3] | SMD Error [4] | PCM Error [5] | COSMO-RS error [6] | FML error [7] | water Exp (hydration) [8, 20] | Exp (hydration) ([8]; free energy of hydration) | GAFF [10] | AMOEBA [11] | SMD free energy of hydration [12] | PCM free energy of hydration [13] | COSMO/Molpro Error [14] | also measured
CC(C)O [2-Propanol] | 1.26 kcal/mol | 0.00 kcal/mol | 0.00 kcal/mol | 0.00 kcal/mol | 1.34 kcal/mol | 0.41 kcal/mol | 0.32 kcal/mol | 1.52 kcal/mol | 0.00 kcal/mol | 0.29 kcal/mol | -4.62 kcal/mol | -4.62 kcal/mol | -3.28 kcal/mol | -4.21 kcal/mol | -4.30 kcal/mol | -3.10 kcal/mol |  | CHEX Exp (solvation) [9, 21]: -2.37 kcal/mol
CC [Ethane] | 0.42 kcal/mol | 0.12 kcal/mol | 0.12 kcal/mol | 0.12 kcal/mol | 0.79 kcal/mol | 0.06 kcal/mol | 0.01 kcal/mol | 1.89 kcal/mol | 0.02 kcal/mol | 0.85 kcal/mol | 1.79 kcal/mol | 1.79 kcal/mol | 2.58 kcal/mol | 1.73 kcal/mol | 1.80 kcal/mol | -0.10 kcal/mol | 2.19 kcal/mol | 
CCCCCCCCO [Octanol] | 1.40 kcal/mol | 0.22 kcal/mol | 0.22 kcal/mol | 0.22 kcal/mol | 1.11 kcal/mol | 1.44 kcal/mol | 0.69 kcal/mol | 0.79 kcal/mol | 0.18 kcal/mol | 0.02 kcal/mol | -4.09 kcal/mol | -4.09 kcal/mol | -5.20 kcal/mol | -2.65 kcal/mol | -3.40 kcal/mol | -3.30 kcal/mol | 2.57 kcal/mol | 
CCC=O [propionaldehyde] | 0.30 kcal/mol | 0.25 kcal/mol | 0.45 kcal/mol | 0.25 kcal/mol | 0.02 kcal/mol | 0.35 kcal/mol | 0.33 kcal/mol | 0.17 kcal/mol | 0.26 kcal/mol | 0.05 kcal/mol |  |  | -3.41 kcal/mol | -3.08 kcal/mol |  |  | 4.76 kcal/mol | 
CCC(N)=O [propionamide] | 1.21 kcal/mol | 0.17 kcal/mol |  | 0.17 kcal/mol |  |  |  |  |  | 2.21 kcal/mol | -9.4 kcal/mol |  |  |  |  |  | 3.50 kcal/mol | water Arrow MD Error [1, 22]: 1.21 kcal/mol; water Arrow PIMD8 Error [1, 23]: 0.17 kcal/mol; CHEX Arrow MD Error [15]: 0.48 kcal/mol; CHEX Arrow PIMD4 Error [15]: 0.34 kcal/mol; logD Arrow MD Error ([16]; Table 4, error of MD logD vs experiment): 0.54; logD Arrow PIMD Error ([16]; Table 4, error of PIMD logD vs experiment): 0.12; water Exp (hydration) [8, 24]: -9.4 kcal/mol; CHEX Exp (solvation) [9, 25]: -3.77 kcal/mol; logD Exp (logD) [17]: −4.13
CC(C)C [Isobutane] | 0.93 kcal/mol | 0.02 kcal/mol |  | 0.02 kcal/mol |  |  | 0.28 kcal/mol | 2.48 kcal/mol | 0.14 kcal/mol | 0.12 kcal/mol | 2.28 kcal/mol |  |  |  | 2.00 kcal/mol | -0.20 kcal/mol | 2.28 kcal/mol | water Arrow MD Error [1, 22]: 0.93 kcal/mol; water Arrow PIMD8 Error [1, 23]: 0.02 kcal/mol; CHEX Arrow MD Error [15]: 0.33 kcal/mol; CHEX Arrow PIMD4 Error [15]: 0.10 kcal/mol; log D Arrow MD Error [16]: 0.44; log D Arrow PIMD Error [16]: 0.06; logD Arrow MD Error [16]: 0.44; logD Arrow PIMD Error [16]: 0.06; water Exp (hydration) [8, 24]: 2.28 kcal/mol; CHEX Exp (solvation) [9, 21]: -2.61 kcal/mol; CHEX Exp (solvation) [9, 25]: -2.61 kcal/mol; Exp (log D) ([17]; Table 3): 3.59; logD Exp (logD) [17]: 3.59
c1cc[nH]c1 [Pyrrole] | 0.08 kcal/mol | 0.63 kcal/mol | 0.63 kcal/mol | 0.63 kcal/mol | 0.93 kcal/mol | 1.00 kcal/mol |  |  | 0.96 kcal/mol | 2.22 kcal/mol | -4.8 kcal/mol | -4.80 kcal/mol | -3.87 kcal/mol | -3.80 kcal/mol |  |  | 2.42 kcal/mol | 
CNC(C)=O [N-Methylacetamide] | 1.52 kcal/mol | 0.49 kcal/mol | 0.49 kcal/mol | 0.49 kcal/mol | 1.61 kcal/mol | 1.34 kcal/mol | 1.40 kcal/mol | 3.40 kcal/mol | 0.27 kcal/mol | 1.89 kcal/mol | -10 kcal/mol | -10.00 kcal/mol | -8.39 kcal/mol | -8.66 kcal/mol | -8.60 kcal/mol | -6.60 kcal/mol | 3.10 kcal/mol | 
